According to patent publication US6914045B2, “Glycopeptide antibiotics” (Wyeth Holdings Corporation, priority 2001, dated 2005):
In brackets after ≈: the same amount, converted by molar mass.

How the values were obtained:
Experiment in all cases: in vitro antibacterial evaluation, MIC by broth dilution
Assay type in all cases: cell-based
Enterococcus sp. = details: broth dilution, 18 hours at 35° C.
Summary of the method: (§1)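 MIC = lowest antibiotic concentration preventing visible growth; inoculum 5×10^5 CFU/mL; drug range 64-0.06 μg/mL; Muller-Hinton II […]; NCCLS M7-A2 guidance.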

Staphylococcus sp. = details: broth dilution, 18 hours at 35° C.
Summary of the method: as §1

Streptococcus sp. = details: broth dilution, 18 hours at 35° C.
Summary of the method: as §1

Escherichia coli = details: 18 hours at 35° C.
Summary of the method: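 Broth dilution MIC per NCCLS M7-A2 in Mueller-Hinton II medium, inoculum 5×10^5 CFU/mL, antibiotic range 64-0.06 μg/mL. MIC taken as lowest concentration inhibiting growth.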

CC(c1ccccc1)C1NC(=O)CNC(=O)C(CO)NC(=O)C(CC2CN(Cc3ccccc3)C(=N)N2C2OC(CO)C(O)C(O)C2O)NC(=O)C(CC2CNC(=N)N2)NC(=O)C(Cc2ccc(OC3OC(CO)C(OC4OC5COC6(OC5C(O)C4O)C4CC5CC(C4)CC6C5)C(O)C3O)cc2)NC1=O (stereo not drawn) [Example 80, Cyclo[3-(2-iminoimidazolidin-4-yl)alanyl-3-(1-benzyl-3-hexopyranosyl-2-iminoimidazolidin-4-yl)alanylserylglycyl-β-methylphenylalanyl-O-[4-O-[4,6-O-(2-adamantylidene)hexopyranosyl]hexopyranosyl]tyrosyl]]
MIC Enterococcus avium (GC 4558) (Enterococcus sp.; Enterococcus avium (GC 4558)): 32 µg/mL (≈ 21.5 µM) | MIC Enterococcus faecalis (ATCC 29212) (Enterococcus sp.; Enterococcus faecalis (ATCC 29212)): 64 µg/mL (≈ 43.1 µM) | MIC Enterococcus faecalis (GC 4552) (Enterococcus sp.; Enterococcus faecalis (GC 4552)): 64 µg/mL (≈ 43.1 µM) | MIC Enterococcus faecalis (GC 4553) (Enterococcus sp.; Enterococcus faecalis (GC 4553)): 32 µg/mL (≈ 21.5 µM) | MIC Enterococcus faecalis (GC 4554) (Enterococcus sp.; Enterococcus faecalis (GC 4554)): 64 µg/mL (≈ 43.1 µM) | MIC Enterococcus faecalis (GC 6189) (Enterococcus sp.; Enterococcus faecalis (GC 6189)): 64 µg/mL (≈ 43.1 µM) | MIC Enterococcus faecium (GC 2243) (Enterococcus sp.; Enterococcus faecium (GC 2243)): 32 µg/mL (≈ 21.5 µM) | MIC Enterococcus faecium (GC 4556) (Enterococcus sp.; Enterococcus faecium (GC 4556)): 64 µg/mL (≈ 43.1 µM) | MIC Enterococcus faecium (GC 4557) (Enterococcus sp.; Enterococcus faecium (GC 4557)): 16 µg/mL (≈ 10.8 µM) | MIC Enterococcus avium (GC 4558) (Enterococcus sp.): 32 µg/mL (≈ 21.5 µM) | MIC Enterococcus faecalis (ATCC 29212) (Enterococcus sp.): 64 µg/mL (≈ 43.1 µM) | MIC Enterococcus faecalis (GC 2242) (Enterococcus sp.): 32 µg/mL (≈ 21.5 µM) | MIC Enterococcus faecalis (GC 2691) (Enterococcus sp.): 64 µg/mL (≈ 43.1 µM) | MIC Enterococcus faecalis (GC 3059) (Enterococcus sp.): 64 µg/mL (≈ 43.1 µM) | MIC Enterococcus faecalis (GC 4552) (Enterococcus sp.): 64 µg/mL (≈ 43.1 µM) | MIC Enterococcus faecalis (GC 4553) (Enterococcus sp.): 32 µg/mL (≈ 21.5 µM) | MIC Enterococcus faecalis (GC 4554) (Enterococcus sp.): 64 µg/mL (≈ 43.1 µM) | MIC Enterococcus faecalis (GC 6189) (Enterococcus sp.): 64 µg/mL (≈ 43.1 µM) | MIC Enterococcus faecium (GC 2243) (Enterococcus sp.): 32 µg/mL (≈ 21.5 µM) | MIC Enterococcus faecium (GC 4556) (Enterococcus sp.): 64 µg/mL (≈ 43.1 µM) | MIC Enterococcus faecium (GC 4557) (Enterococcus sp.): 16 µg/mL (≈ 10.8 µM) | MIC Enterococcus faecalis (GC 2242) (Enterococcus sp.; strain GC 2242): 32 µg/mL (≈ 21.5 µM) | MIC Enterococcus faecalis (GC 2691) (Enterococcus sp.; strain GC 2691): 64 µg/mL (≈ 43.1 µM) | MIC Enterococcus faecalis (GC 3059) (Enterococcus sp.; strain GC 3059): 64 µg/mL (≈ 43.1 µM) | MIC Staphylococcus aureus (ATCC 29213) (Staphylococcus sp.; strain ATCC 29213): 32 µg/mL (≈ 21.5 µM) | MIC Staphylococcus aureus (GC 1131) (Staphylococcus sp.; strain GC 1131): 32 µg/mL (≈ 21.5 µM) | MIC Staphylococcus aureus (GC 3051) (Staphylococcus sp.; strain GC 3051): 32 µg/mL (≈ 21.5 µM) | MIC Staphylococcus aureus (GC 3053) (Staphylococcus sp.; strain GC 3053): 64 µg/mL (≈ 43.1 µM) | MIC Staphylococcus aureus (GC 4541) (Staphylococcus sp.; strain GC 4541): 32 µg/mL (≈ 21.5 µM) | MIC Staphylococcus aureus (GC 4542) (Staphylococcus sp.; strain GC 4542): 32 µg/mL (≈ 21.5 µM) | MIC Staphylococcus aureus-SMITH (GC 4543) (Staphylococcus sp.; strain GC 4543): 32 µg/mL (≈ 21.5 µM) | MIC Staphylococcus aureus (GC 4544) (Staphylococcus sp.; strain GC 4544): 32 µg/mL (≈ 21.5 µM) | MIC Staphylococcus aureus (GC 4545) (Staphylococcus sp.; strain GC 4545): 32 µg/mL (≈ 21.5 µM) | MIC Staphylococcus haemolyticus (GC 4546) (Staphylococcus sp.; strain GC 4546): 32 µg/mL (≈ 21.5 µM) | MIC Coagulase Negative Staphylococcus (GC 4547) (Staphylococcus sp.; strain GC 4547): 32 µg/mL (≈ 21.5 µM) | MIC Coagulase Negative Staphylococcus (GC 4548) (Staphylococcus sp.; strain GC 4548): 32 µg/mL (≈ 21.5 µM) | MIC Coagulase Negative Staphylococcus (GC 4549) (Staphylococcus sp.; strain GC 4549): 32 µg/mL (≈ 21.5 µM) | MIC Coagulase Negative Staphylococcus (GC 4551) (Staphylococcus sp.; strain GC 4551): 32 µg/mL (≈ 21.5 µM) | MIC Coagulase Negative Staphylococcus (GC 6257) (Staphylococcus sp.; strain GC 6257): 8 µg/mL (≈ 5.38 µM) | MIC Streptococcus agalactiae (GC 4564) (Streptococcus sp.): 8 µg/mL (≈ 5.38 µM) | MIC Streptococcus pneumoniae (ATCC 6301) (Streptococcus sp.): 8 µg/mL (≈ 5.38 µM) | MIC Streptococcus pneumoniae (GC 1894) (Streptococcus sp.): 4 µg/mL (≈ 2.69 µM) | MIC Streptococcus pneumoniae (GC 4565) (Streptococcus sp.): 16 µg/mL (≈ 10.8 µM) | MIC Streptococcus pyogenes (GC 4563) (Streptococcus sp.): 8 µg/mL (≈ 5.38 µM) | MIC Streptococcus pneumoniae (ATCC 6301) (Streptococcus sp.; strain ATCC 6301): 8 µg/mL (≈ 5.38 µM) | MIC Streptococcus pneumoniae (GC 1894) (Streptococcus sp.; strain GC 1894): 4 µg/mL (≈ 2.69 µM) | MIC Streptococcus pyogenes (GC 4563) (Streptococcus sp.; strain GC 4563): 8 µg/mL (≈ 5.38 µM) | MIC Streptococcus agalactiae (GC 4564) (Streptococcus sp.; strain GC 4564): 8 µg/mL (≈ 5.38 µM) | MIC Streptococcus pneumoniae (GC 4565) (Streptococcus sp.; strain GC 4565): 16 µg/mL (≈ 10.8 µM) | MIC Escherichia coli (ATCC 25922) (Escherichia coli): >64 µg/mL | MIC Escherichia coli (GC 4559) (Escherichia coli): >64 µg/mL | MIC Escherichia coli (GC 4560) (Escherichia coli): 8 µg/mL (≈ 5.38 µM)
